From a melting point compilation (Tetko et al.; mined from patent text by program, amines drawn as free bases though some values may be those of a salt)

Compound | melting point
Cc1ccc(S(=O)(=O)n2cc(/C=C/C(=O)N(C)C)nc2C)cc1 | 162 to 163 °C
O=C1CC(O)CN1C(=O)Nc1ccccc1 (stereo not given) | 104 °C
CC(C)(C)c1ccc(CC(=O)CCCl)cc1 | 46 to 49 °C
COc1cc2c(cc1OC)C(C)(CCCCl)OCC2 (stereo not given) | 77 to 79 °C
Cc1c(C(=O)O)ccc2c1OCO2 | 180 to 182 °C
CCOc1ccc(-n2c(N)cc(=O)nc2Nc2ccccc2)cc1 | 114 to 118 °C
O=C(c1ccccc1)c1cc2c(cc1O)C(CO)(C(=O)O)CC2 (stereo not given) | 104 to 110 °C
CN(C)C=C(C#N)C(=O)c1nccs1 | 126 °C
COc1ccc(COC(=O)NC(CO)Cc2ccc(O)cc2)cc1 (stereo not given) | 139 to 141 °C
Cc1cc(C)nc(Oc2cccc(Oc3ncc(Cl)cn3)c2)n1 | 142 °C
Cn1nc(C(=O)NCc2ccc(Cl)cc2)c(=O)c2cc(CN3CCOCC3)ccc21 | 190 to 192 °C
CCc1cc(OCc2ccc(-c3ccccc3-c3nnn(C(c4ccccc4)(c4ccccc4)c4ccccc4)n3)cc2)c2nc(OCC=O)ccc2n1 | 168 to 169 °C
CCC(=O)Nc1cccc(NC(=O)C(C)C)c1 | 174 to 175 °C
CC(=Cc1ccsc1)N(O)C(N)=O | 165 to 167 °C
COc1cccc2c1C(=O)c1c(OC)cc(-c3nc4ccccc4n3C)cc1C2=O | 283 to 284 °C
C=C(C)c1ccc(C2COc3c(C)c(C)c(NC(=O)CC(C)(C)C)c(C)c32)cc1OC (stereo not given) | 186 to 187 °C
CS(=O)(=O)c1ccc(C2=C(c3ccc4c(c3)OCO4)CCC2)cc1 | 140 to 141 °C
CCCCc1nnc2ccccc2c1Cc1ccc(-c2ccccc2)c(C(=O)O)c1 | 210 °C
O=S(=O)(Nc1ccc(C(O)(C(F)(F)F)C(F)(F)F)cc1)c1ccccc1 | 117 to 118 °C
COC(=O)[C@H](c1ccccc1Cl)N1CCc2sc(OC(=O)COc3ccccc3)cc2C1 | 104 to 106 °C
CCOC(Cc1ccc(OCc2nc(C3CC3)oc2C)c2ccsc12)C(=O)O (stereo not given) | 153 to 154 °C
CC(=O)c1ccc(-c2ccc(Cl)c(Cl)c2)o1 | 114 to 117 °C
Cc1nsc(CCCOc2c(C)cc(-c3noc(C)n3)cc2C)n1 | 67 to 71 °C
Cc1c(NC(=O)c2ccc(OCC3CC3)cc2)ccc2[nH]c(CNC3CCCC3)cc12 | 207 to 208 °C
CCCCCCCCCCCC(=O)C(C)(C)C(=O)Nc1c(OC)cc(OC)cc1OC | 92 to 94 °C

Compound | melting point
O=C(NCC1Cc2cc(Cl)c3c(c2O1)CCC3)OCc1ccccc1 (stereo not given) | 118 to 121 °C
COC(=O)c1cccc2c(Cl)c(OC)ccc12 | 125 °C
Cn1cccc1C(N)=S | 87 to 88 °C
COc1ccc(COC(=O)c2cc([N+](=O)[O-])c3ccccc3c2OS(=O)(=O)C(F)(F)F)cc1 | 74 to 75 °C
O=C(O)c1c2c(nc3ccc(F)cc13)-c1ccc(-c3cccs3)cc1CCC2 | > 300 °C
COc1ccc(C(CC(=O)Nc2ccc(NC(=O)Nc3ccccc3C)cc2)NC(=O)c2ccc(C(=O)O)cc2)cc1OC (stereo not given) | 166 °C
C#CCc1c(C)nc2c(OCc3c(C)cccc3N(C)C(C)=O)cccn12 | 76 °C
Cc1c2ccccc2c(O[Si](C)(C)C(C)(C)C)c2occ(CCC=O)c12 | 152 to 154 °C
N#Cc1ccc(Oc2ccc(CBr)cc2)cc1C#N | 101 to 102 °C
COC(=O)c1c(C)nc(C)c(C(=O)OC)c1-c1ccccc1F | 94 to 96 °C
Cc1cc(OC(=O)c2ccc(Cl)c(OCCn3cnnn3)c2Cl)n(C)n1 | 138 to 140 °C
COc1ccnc(CCc2nc3cc(-c4ccc(NC(C)=O)cc4)cnc3[nH]2)c1 | 220 to 221 °C
CN1C(=O)[C@H](NC(=O)/C=C/c2cccc(Br)c2)N=C(c2ccccc2)c2ccccc21 | 221 °C
CC(C)COc1ccc(C(=O)NCC(=O)O)cc1 | 140 to 142 °C
O=C(O)c1ccc(Cc2ccccc2)[nH]1 | 130 to 134 °C
O=C1N=C(N2CCCCCCC2)SC1=Cc1cccc(-c2ccc(O)c(C34CC5CC(CC(C5)C3)C4)c2)c1 | 284 to 286 °C
Cc1ccc(-c2ccccc2)cc1Cn1c(Cl)nn(C)c1=O | 116 °C
CC(C)S(=O)(=O)ON=C(C#N)c1cccs1 | 80 to 82 °C
Cc1ccc(N(C)S(=O)(=O)c2cccnc2Cl)c2[nH]c(C3=NCC(CN4CCOCC4)S3)cc12 (stereo not given) | 151 to 153 °C
COc1ccc(-c2cc(C(=O)O)c(=O)n(CC3CC3)n2)cc1F | 169 to 171 °C
CCOC(=O)CCNC=C(C(=O)OCC)C(=O)c1cc(F)c(Cl)c([N+](=O)[O-])c1Cl | 107 to 108 °C
O=C(c1cc2ccnc(Cl)c2[nH]1)N1CCCC1 | 152 to 154 °C
COc1ccccc1-n1c(-c2sc(Nc3ccccc3)nc2-c2ccccc2)nc2ccccc2c1=O | 224 to 225 °C
CCC(CNC(=O)OC(C)(C)C)n1cnc2c(N)nc3ccccc3c21 (stereo not given) | 171 to 173 °C
C=CCSc1sc(-c2cc[nH]n2)c2c1C(=O)CC(C)(C)C2 | 164 to 167 °C
